In patent EP1149106B1, “4,5-AZOLO-OXINDOLES” (F. HOFFMANN-LA ROCHE AG, priority 1998, dated 2000):

How the values were obtained:
[1] = system: colon carcinoma line SW480; assay: Cell-based antiproliferative assay (MTT), SW480; conditions: Homo sapiens, SW480, 96 h, 1000 cells per well, 4 days post addition of test compound
[2] = system: estrogen receptor negative epithelial breast carcinoma line (MDA-MB-435); assay: Cell-based antiproliferative assay (MTT), MDA-MB-435; conditions: Homo sapiens, MDA-MB-435, 120 h, 2000 cells per well, 5 days post addition of test compound, read-out: MDA-MB435 IC50
Protocol: The estrogen receptor negative epithelial breast carcinoma line (MDA-MB-435) was purchased from American Type Cell Culture Collection (ATCC; Rockville, MD) and was grown in the medium recommended by ATCC. For analysis of the effect of the test compounds on growth of these cells, the cells were plated at 2000 cells per well in a 96-well tissue culture plate, and were incubated overnight at 37°C with 5% CO2. The next day, the test compounds were dissolved in 100% dimethyl sulfoxide (DMSO) to yield a 10 mM stock solution. Each compound was diluted with sterile medium to 1 mM in a sufficient quantity to yield a final concentration of 120 µM. The compounds were then serially diluted in medium with 1.2% DMSO. […] The plates were returned to the incubator, and 5 days post addition of test compound, were analyzed as described below.
3-(4,5-Dimethylthiazole-2-yl)-2,5-diphenyl-2H-tetrazolium bromide (thiazolyl blue; MTT) was added to each well to yield a final concentration of 1 mg/ml. […] Absorbencies were read in a microtiter plate reader (Molecular Dynamics) at a wavelength of 570 nm with a 650 nm reference. Percent inhibition was calculated by subtracting the absorbance of the blank (no cell) wells from all wells, then subtracting the division of the average absorbance of each test duplicate by the average of the controls from 1.00. […]

[3] = target: T1, Cyclin E/CDK2 (Homo sapiens, UniProt P24941); assay: CDK2 FlashPlate Assay (Rb phosphorylation, 33P-ATP); assay type: biochemical; conditions: recombinant human Cyclin E/CDK2, Rb substrate, 25 minutes at room temperature
T1 construct: made in house; host or cells: insect cells
Protocol: To determine inhibition of CDK2 activity, purified recombinant retinoblastoma (Rb) protein was coated on 96 well FlashPlates (New England Nuclear, Boston, MA). Rb is a natural substrate for phosphorylation by CDK2 (Herwig and Strauss Eurr. J. Biochem., Vol. 246 (1997) pp. 581-601 and references therein). Recombinant active human Cyclin E/CDK2 complexes were partially purified from extracts of insect cells. The active Cyclin E/CDK2 was added to the Rb-coated FlashPlates along with ^33P-ATP and dilutions of test compounds. Plates were incubated for 25 minutes at room temperature with shaking, then washed and counted in the Topcount scintillation counter (Packard Instrument Co., Downers Grove, IL). Dilutions of test compounds were tested in duplicate in each assay. The percent inhibition of Rb phosphorylation, which is a measure of the inhibition of CDK2 activity, was determined according to the following formula: [formula] where "test compound" refers to the average counts per minute of the test duplicates, "nonspecific" refers to the average counts per minute when no Cyclin E/CDK2 was added, and "total" refers to the average counts per minute when no compound was added.

For COc1cc[nH]c1/C=C1\C(=O)Nc2ccc3[nH]c(C)nc3c21 [P, (Z)-8-[(3-Methoxy-1H-pyrrol-2-yl)methylene]-2-methyl-3,6,7,8-tetrahydro-pyrrolo-[3,2-e]benzimidazol-7-one], the IC50 [1] was under 1 µM, the IC50 [2] was under 3.5 µM and the IC50 [3] was under 3.5 µM.
